These results are taken from PubChem BioAssay (NCI).

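Test compounds were applied to cells in 96-well plates for 48 hours at 5 doses. GI50 = concentration required for 50% inhibition of growth. TGI: concentration producing complete growth inhibition.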

Common to all, as to test: DTP human tumour cell line panel, 48 h
Test [1] has as its system MDA-N.
In test [2] the test system is DMS 114 small cell lung.
Test [3] concerns DMS 273 small cell lung.
Test [4] has as its system HOP-18 NSCLC.
The subject of test [5] is LXFL 529 NSCLC.
Test [6] relates to M19-MEL melanoma.
Test [7] concerns SNB-78 CNS.
The test system of test [8] is XF 498 CNS.
Test [9] has as its system RXF-631 renal.

As usually defined, the TGI is the concentration giving total growth inhibition. A higher TGI goes with lower sensitivity of the cells. `S=C(Nc1ccc(Cl)cc1)SC1CCCCC1` came in with a TGI in [1] of 47 µM.

Regarding `CC(C)(C)C1CCP(=O)(c2ccccc2)CC1` (configuration not stated), the TGI in [2], in test [3], in test [4], in test [5], in test [6] and in test [7] was more than 100 µM throughout. This molecule also returned a TGI in [8] of more than 100 µM.

Turning to `COC(=O)[C@H]1CC(=O)C=C2CCCC21` (some centres not stated), the TGI in test [2], in [3], in [5], in [6], in [9] and in test [8] was more than 100 µM in each case.

Regarding `O=C(O)/C(=C/c1ccccc1[N+](=O)[O-])c1cccs1`, the TGI in [3], in test [4], in [5], in [6], in [9] and in test [7] was more than 100 µM throughout. In test [8], the TGI is more than 100 µM.

Regarding `CC1=C(C(=O)Nc2cccc(C(F)(F)F)c2)C(c2ccccc2F)C(C(=O)Nc2cccc(C(F)(F)F)c2)=C(C)N1`, the TGI is 14.2 µM in test [2]; 19.2 µM in test [5]; 21.3 µM in test [6]; 23.2 µM in [9]; 65.6 µM in test [7]; 14.6 µM in [8].

Molecule `O=S(=O)(CC(O)C(Cl)(Cl)Cl)NNc1ccccc1` (configuration not stated) came in with a TGI in test [1] of more than 100 µM.

For the molecule `CC(=O)n1cc(CC(C)O)c(=O)[nH]c1=O` (configuration not stated), the TGI in test [2], in [3], in test [4], in [5], in [6] and in test [9] was more than 100 µM throughout. For the same molecule, the TGI in [7] and in test [8] was more than 100 µM in each case.

For the molecule `O=C(O)CN(CC(=O)O)c1ccccc1`, the TGI in test [1] is more than 100 µM.

On to `CC[C@@]1(O)C(=O)OCc2c1cc1n(c2=O)Cc2cc3c(Cl)c4c(cc3nc2-1)OCO4`, for which, in test [1], the TGI was more than 100 µM.

Turning to `O=C(O)CC1C(=O)OC2C3COC(=O)c4cc(O)c(O)c(O)c4-c4c(cc(O)c(O)c4O)C(=O)OC2C(OC(=O)c2cc(O)c(O)c4c2C1C(O)C(=O)O4)C(OC(=O)c1cc(O)c(O)c(O)c1)O3` (configuration not stated), the TGI in [1] amounted to 50.1 µM. This counts as double-digit micromolar.

As to `NC(=O)c1ccccc1NC(=O)C(=O)Nc1n[nH]c(N)n1`, the TGI in test [3], in test [4], in test [5], in test [6], in [7] and in test [8] was more than 100 µM throughout.

For orientation: GI50 means the concentration giving 50% growth inhibition. Consider `CC(=O)NC1CCCN(O)C(=O)/C=C(/C)CCOC(=O)C(NC(C)=O)CCCN(O)C(=O)/C=C(/C)CCOC(=O)C(NC(C)=O)CCCN(O)C(=O)/C=C(/C)CCOC1=O.[Fe]` (configuration not stated), for which, in [1], the GI50 is more than 100 µM and the TGI was more than 100 µM.

Take `Cc1nn2c(=O)n(-c3cccc(-n4nnc5c(-c6ccccc6)c(C)nn5c4=O)c3C)nnc2c1-c1ccccc1`: the total growth inhibition concentration (TGI) in test [2] was 30.2 µM; in [3] it was more than 100 µM; in test [4], more than 100 µM; in test [5] it was more than 100 µM; in [6] it was more than 100 µM; in test [7] it was more than 100 µM. Also, in test [8], the TGI turned out to be 40.1 µM.

Turning to `Cc1ccc(SC2C(C)(C)N(C(C)C)P2(=O)N(C(C)C)C(C)C)cc1` (configuration not stated), the TGI in test [3] was 27.7 µM; in [4], more than 100 µM; in test [5], more than 100 µM; in test [6], more than 86.6 µM; in test [7] it was more than 100 µM.

For `Cc1ccc(S(=O)(=O)Nc2cccc(C)c2C)cc1`, the total growth inhibition concentration (TGI) in test [2], in [3], in test [4], in [5], in test [6] and in test [9] was more than 100 µM throughout. The molecule also registered a TGI in [7] of more than 100 µM.

Consider `Cc1cn(C2CC(N=[N+]=[N-])C(CO)O2)c(=O)[nH]c1=O` (configuration not stated), for which, in test [1], the TGI was more than 1000 µM.

Consider `CC[C@@]1(OC(=O)C(N)CCC(=O)O)C(=O)OCc2c1cc1n(c2=O)Cc2cc3ccccc3nc2-1` (some centres not stated), for which the TGI in test [2] was 4.42 µM; in test [3], 0.29 µM; in [5], 5.75 µM; in [6] it was 1.49 µM; in [7] it was more than 100 µM; in [8], 2.04 µM.

Consider `O=S1c2ccccc2N=C(c2ccc3ccccc3c2)CC1c1ccccc1F` (configuration not stated), for which the TGI in test [2], in [3], in [4], in [5], in test [6] and in [9] was more than 100 µM each time. Also, in test [8], the TGI was more than 100 µM.

On to `COc1cccc(C(C#N)NC23CC4CC(CC(C4)C2)C3)c1` (configuration not stated), for which the TGI in [1] was more than 100 µM.

`CC(N)CN.CC(N)CN.[Cl-].[O]=[Os+2]=[O]` (configuration not stated): the GI50 in test [2] was 47.6 µM; in test [3] it was 43.1 µM; in test [4], 25.9 µM; in [5], 53.1 µM; in test [6] it was 7.59 µM; in [9] it was 96.9 µM. Further, the GI50 in [7] is more than 100 µM. The TGI is more than 100 µM in [2]; more than 100 µM in [3]; more than 100 µM in test [4]; more than 100 µM in test [5]; 26.3 µM in [6]; more than 100 µM in test [9]. This molecule also gave a TGI in [7] of more than 100 µM.

Consider `CC(C)(C)C1CCC(CI)(N=[N+]=[N-])CC1` (configuration not stated), for which the TGI in test [2], in [3], in test [4], in test [5], in test [6] and in test [7] was more than 100 µM each time. Further, in test [8], the TGI was more than 100 µM.
